# Results reported in article PMC9557946, “Intermittent MEK inhibition for the treatment of metastatic uveal melanoma” (Frontiers in Oncology, 2022).
# Legend:
# [1] = system: SKMEL28 melanoma cell lines; parameters: method as in PMID 31874374; conditions: intermittently administered; ref [19]; cited from earlier work
# [2] = Pharmacokinetic analysis in serum (LC-MS/MS, non-compartmental)
# Protocol: Non-compartmental analyses were performed on the data for day 1, 2, 15 and 17 using Winnonlin software (Phoenix Winnonlin 8.3.1.5014, Certara L.P., Princeton, NJ). […] Data were summarized per dose level and per occasion. Dose-exposure relationships were explored by plotting dose versus the various parameters. Accumulation was investigated using the AUC assessed at various days.
SMILES,effect of treatment interruptions on tumor growth [1],accumulation ([2]; during three days of dosing and repeated three-day courses),"average terminal half-life ([2]; from 8h serum concentration curves, likely an underestimation)",time to maximum serum concentration after oral intake ([2]; overall)
O=C(c1ccc(F)c(F)c1Nc1ccc(I)cc1F)N1CC(O)([C@@H]2CCCCN2)C1 [cobimetinib],Treatment interruptions resulted in tumor regrowth that could not be compensated when drug administration was resumed,,,
O=C(NOCCO)c1cc2nc[nH]c2c(F)c1Nc1ccc(Br)cc1Cl [N-desmethyl-selumetinib],,little to no accumulation,4.3 h,approximately 1.7 hours
